Data taken from patent US20070049564A1 (Wyeth, priority 2005, published 2007).
Values after ≈ are worked out from the molar mass of the structure shown.

Legend:
Assay in all cases: MIC, broth microdilution
[1] = system: E. coli GC 3226; conditions: Escherichia coli
[2] = system: S. epidermidis GC 4935; conditions: Staphylococcus epidermidis
[3] = system: E. coli GC 2270; conditions: Escherichia coli
Protocol: (§1) Antimicrobial susceptibility testing. The in vitro activities of the antibiotics are determined by the broth microdilution method as recommended by the National Committee for Clinical Laboratory Standards (NCCLS) (1). Mueller-Hinton II broth (MHBII)(BBL Cockeysville, Md.) is the medium employed in the testing procedures. Microtiter plates containing serial dilutions of each antimicrobial agent are inoculated with each organism to yield the appropriate density (10^5 CFU/ml) in a 100 μl final volume. The plates are incubated for 18-22 hours at 35° C. in ambient air.
Representative compounds were first incubated in mouse serum for an hour prior to the in vitro testing against a panel of selected gram-positive and gram-negative bacteria strains. All compounds were also pre-incubated in water for an hour prior to testing as control. Representative compounds of Formula I were incubated in human serum prior to MIC determination.

[4] = system: c. albicans GC 3066
[5] = system: E. coli GC 6465; conditions: Escherichia coli
Protocol: as §1
Representative compounds were first incubated in mouse serum for an hour prior to the in vitro testing against a panel of selected gram-positive and gram-negative bacteria strains. All compounds were also pre-incubated in water for an hour prior to testing as control.

[6] = system: S. aureus GC 6469; conditions: Staphylococcus aureus
[7] = system: S. aureus GC 1131; conditions: Staphylococcus aureus
[8] = system: E. coli GC 1073; conditions: Escherichia coli
[9] = system: E. faecalis GC 2265; conditions: Enterococcus faecalis
[10] = system: E. faecium GC 2243; conditions: Enterococcus faecium
[11] = system: E. coli GC 2272; conditions: Escherichia coli
[12] = system: S. aureus GC 6335; conditions: Staphylococcus aureus
[13] = system: E. coli GC 2233; conditions: Escherichia coli
[14] = system: E. coli GC 2271; conditions: Escherichia coli
[15] = system: S. aureus GC 6467; conditions: Staphylococcus aureus
[16] = system: E. coli GC 4560; conditions: Escherichia coli
[17] = system: E. coli GC 2203; conditions: Escherichia coli
[18] = system: S. aureus GC 1079; conditions: Staphylococcus aureus
[19] = system: P. aeruginosa GC 2214; conditions: Pseudomonas aeruginosa
[20] = system: E. faecalis GC 2267; conditions: Enterococcus faecalis

## CN(C)c1cc(NC(=O)CN(C(=O)OCOC(=O)C2CCC2)C(C)(C)C)c(O)c2c1C[C@H]1C[C@H]3[C@H](N(C)C)C(O)=C(C(N)=O)C(=O)[C@@]3(O)C(O)=C1C2=O [Example 62, ({[(2-{[(5aR,6aS,7S,10aS)-9-(aminocarbonyl)-4,7-bis(dimethylamino)-1,8,10a,11-tetrahydroxy-10,12-dioxo-5,5a,6,6a,7,10,10a,12-octahydrotetracen-2-yl]amino}-2-oxoethyl)(tert-butyl)amino]carbonyl}oxy)methyl cyclobutanecarboxylate]
[1]; GC3226, pre-incubation in human serum
  MIC: 4 mg/L (≈ 5.39 µM)
[1]; GC3226, pre-incubation in mouse serum
  MIC: 1 mg/L (≈ 1.35 µM)
[1]; GC3226, pre-incubation in water
  MIC: 8 mg/L (≈ 10.8 µM)
[2]; GC4935, pre-incubation in human serum
  MIC: 0.5 mg/L (≈ 0.674 µM)
[2]; GC4935, pre-incubation in mouse serum
  MIC: 0.5 mg/L (≈ 0.674 µM)
[2]; GC4935, pre-incubation in water
  MIC: 0.5 mg/L (≈ 0.674 µM)
[3]; GC2270, pre-incubation in human serum
  MIC: 2 mg/L (≈ 2.7 µM)
[3]; GC2270, pre-incubation in mouse serum
  MIC: 0.5 mg/L (≈ 0.674 µM)
[3]; GC2270, pre-incubation in water
  MIC: 8 mg/L (≈ 10.8 µM)
[4]; Candida albicans, GC3066
  MIC: > 64 mg/L
[4]; pre-incubation in human serum
  MIC: >64 UG/ML
[4]; pre-incubation in mouse serum
  MIC: >64 UG/ML
[5]; GC6465, pre-incubation in human serum
  MIC: 8 mg/L (≈ 10.8 µM)
[5]; GC6465, pre-incubation in mouse serum
  MIC: 2 mg/L (≈ 2.7 µM)
[5]; GC6465, pre-incubation in water
  MIC: > 64 mg/L
[6]; GC6469, pre-incubation in human serum
  MIC: 0.5 mg/L (≈ 0.674 µM)
[6]; GC6469, pre-incubation in mouse serum
  MIC: 1 mg/L (≈ 1.35 µM)
[6]; GC6469, pre-incubation in water
  MIC: 1 mg/L (≈ 1.35 µM)
[7]; GC1131, pre-incubation in human serum
  MIC: 0.5 mg/L (≈ 0.674 µM)
[7]; GC1131, pre-incubation in mouse serum
  MIC: 0.5 mg/L (≈ 0.674 µM)
[7]; GC1131, pre-incubation in water
  MIC: 0.5 mg/L (≈ 0.674 µM)
[8]; GC1073, pre-incubation in human serum
  MIC: 4 mg/L (≈ 5.39 µM)
[8]; GC1073, pre-incubation in mouse serum
  MIC: 0.5 mg/L (≈ 0.674 µM)
[8]; GC1073, pre-incubation in water
  MIC: 16 mg/L (≈ 21.6 µM)
[9]; GC2265, pre-incubation in human serum
  MIC: 0.5 mg/L (≈ 0.674 µM)
[9]; GC2265, pre-incubation in mouse serum
  MIC: 0.5 mg/L (≈ 0.674 µM)
[9]; GC2265, pre-incubation in water
  MIC: 1 mg/L (≈ 1.35 µM)
[10]; GC2243, pre-incubation in human serum
  MIC: 0.5 mg/L (≈ 0.674 µM)
[10]; GC2243, pre-incubation in mouse serum
  MIC: 0.5 mg/L (≈ 0.674 µM)
[10]; GC2243, pre-incubation in water
  MIC: 0.5 mg/L (≈ 0.674 µM)
[11]; GC2272, pre-incubation in human serum
  MIC: 4 mg/L (≈ 5.39 µM)
[11]; GC2272, pre-incubation in mouse serum
  MIC: 1 mg/L (≈ 1.35 µM)
[11]; GC2272, pre-incubation in water
  MIC: 8 mg/L (≈ 10.8 µM)
[12]; GC6335, pre-incubation in human serum
  MIC: 0.5 mg/L (≈ 0.674 µM)
[12]; GC6335, pre-incubation in mouse serum
  MIC: 1 mg/L (≈ 1.35 µM)
[12]; GC6335, pre-incubation in water
  MIC: 0.5 mg/L (≈ 0.674 µM)
[13]; GC2233, pre-incubation in human serum
  MIC: 4 mg/L (≈ 5.39 µM)
[13]; GC2233, pre-incubation in mouse serum
  MIC: 2 mg/L (≈ 2.7 µM)
[13]; GC2233, pre-incubation in water
  MIC: 8 mg/L (≈ 10.8 µM)
[14]; GC2271, pre-incubation in human serum
  MIC: 2 mg/L (≈ 2.7 µM)
[14]; GC2271, pre-incubation in mouse serum
  MIC: 1 mg/L (≈ 1.35 µM)
[14]; GC2271, pre-incubation in water
  MIC: 4 mg/L (≈ 5.39 µM)
[15]; GC6467, pre-incubation in human serum
  MIC: 0.5 mg/L (≈ 0.674 µM)
[15]; GC6467, pre-incubation in mouse serum
  MIC: 1 mg/L (≈ 1.35 µM)
[15]; GC6467, pre-incubation in water
  MIC: 0.5 mg/L (≈ 0.674 µM)
[16]; GC4560, pre-incubation in human serum
  MIC: 0.5 mg/L (≈ 0.674 µM)
[16]; GC4560, pre-incubation in mouse serum
  MIC: 0.25 mg/L (≈ 0.337 µM)
[16]; GC4560, pre-incubation in water
  MIC: 0.5 mg/L (≈ 0.674 µM)
[17]; GC2203, pre-incubation in human serum
  MIC: 4 mg/L (≈ 5.39 µM)
[17]; GC2203, pre-incubation in mouse serum
  MIC: 1 mg/L (≈ 1.35 µM)
[17]; GC2203, pre-incubation in water
  MIC: 16 mg/L (≈ 21.6 µM)
[18]; GC1079, pre-incubation in human serum
  MIC: 0.5 mg/L (≈ 0.674 µM)
[18]; GC1079, pre-incubation in mouse serum
  MIC: 1 mg/L (≈ 1.35 µM)
[18]; GC1079, pre-incubation in water
  MIC: 0.5 mg/L (≈ 0.674 µM)
[19]; GC2214, pre-incubation in human serum
  MIC: > 64 mg/L
[19]; GC2214, pre-incubation in mouse serum
  MIC: 16 mg/L (≈ 21.6 µM)
[19]; GC2214, pre-incubation in water
  MIC: > 64 mg/L
[20]; GC2267, pre-incubation in human serum
  MIC: 0.5 mg/L (≈ 0.674 µM)
[20]; GC2267, pre-incubation in mouse serum
  MIC: 0.5 mg/L (≈ 0.674 µM)
[20]; GC2267, pre-incubation in water
  MIC: 1 mg/L (≈ 1.35 µM)

## CCCCN(CC(=O)Nc1cc(N(C)C)c2c(c1O)C(=O)C1=C(O)[C@]3(O)C(=O)C(C(N)=O)=C(O)[C@@H](N(C)C)[C@@H]3C[C@@H]1C2)C(=O)OCOC(=O)C(C)(C)C [Example 13, ({[(2-{[(5aR,6aS,7S,10aS)-9-(aminocarbonyl)-4,7-bis(dimethylamino)-1,8,10a,11-tetrahydroxy-10,12-dioxo-5,5a,6,6a,7,10,10a,12-octahydrotetracen-2-yl]amino}-2-oxoethyl)(butyl)amino]carbonyl}oxy)methyl pivalate]
[1]; GC3226, E. coli GC 3226, Mouse Serum pre-incubation
  MIC: 2 mg/L (≈ 2.69 µM)
[1]; GC3226, E. coli GC 3226, Water pre-incubation
  MIC: 16 mg/L (≈ 21.5 µM)
[2]; GC4935, S. epidermidis GC 4935, Mouse Serum pre-incubation
  MIC: 4 mg/L (≈ 5.38 µM)
[2]; GC4935, S. epidermidis GC 4935, Water pre-incubation
  MIC: 8 mg/L (≈ 10.8 µM)
[3]; GC2270, E. coli GC 2270, Mouse Serum pre-incubation
  MIC: 1 mg/L (≈ 1.34 µM)
[3]; GC2270, E. coli GC 2270, Water pre-incubation
  MIC: 8 mg/L (≈ 10.8 µM)
[4]; Candida albicans, GC3066
  MIC: > 64 mg/L
[4]; c. albicans GC 3066, Water pre-incubation
  MIC: >64 UG/ML
[5]; GC6465, E. coli GC 6465, Mouse Serum pre-incubation
  MIC: 8 mg/L (≈ 10.8 µM)
[5]; GC6465, E. coli GC 6465, Water pre-incubation
  MIC: > 64 mg/L
[6]; GC6469, S. aureus GC 6469, Mouse Serum pre-incubation
  MIC: 4 mg/L (≈ 5.38 µM)
[6]; GC6469, S. aureus GC 6469, Water pre-incubation
  MIC: 8 mg/L (≈ 10.8 µM)
[7]; GC1131, S. aureus GC 1131, Mouse Serum pre-incubation
  MIC: 2 mg/L (≈ 2.69 µM)
[7]; GC1131, S. aureus GC 1131, Water pre-incubation
  MIC: 2 mg/L (≈ 2.69 µM)
[8]; GC1073, E. coli GC 1073, Mouse Serum pre-incubation
  MIC: 2 mg/L (≈ 2.69 µM)
[8]; GC1073, E. coli GC 1073, Water pre-incubation
  MIC: 16 mg/L (≈ 21.5 µM)
[9]; GC2265, E. faecalis GC 2265, Mouse Serum pre-incubation
  MIC: 4 mg/L (≈ 5.38 µM)
[9]; GC2265, E. faecalis GC 2265, Water pre-incubation
  MIC: 8 mg/L (≈ 10.8 µM)
[10]; GC2243, E. faecium GC 2243, Mouse Serum pre-incubation
  MIC: 2 mg/L (≈ 2.69 µM)
[10]; GC2243, E. faecium GC 2243, Water pre-incubation
  MIC: 4 mg/L (≈ 5.38 µM)
[11]; GC2272, E. coli GC 2272, Mouse Serum pre-incubation
  MIC: 2 mg/L (≈ 2.69 µM)
[11]; GC2272, E. coli GC 2272, Water pre-incubation
  MIC: 8 mg/L (≈ 10.8 µM)
[12]; GC6335, S. aureus GC 6335, Mouse Serum pre-incubation
  MIC: 2 mg/L (≈ 2.69 µM)
[12]; GC6335, S. aureus GC 6335, Water pre-incubation
  MIC: 4 mg/L (≈ 5.38 µM)
[13]; GC2233, E. coli GC 2233, Mouse Serum pre-incubation
  MIC: 2 mg/L (≈ 2.69 µM)
[13]; GC2233, E. coli GC 2233, Water pre-incubation
  MIC: 8 mg/L (≈ 10.8 µM)
[14]; GC2271, E. coli GC 2271, Mouse Serum pre-incubation
  MIC: 2 mg/L (≈ 2.69 µM)
[14]; GC2271, E. coli GC 2271, Water pre-incubation
  MIC: 8 mg/L (≈ 10.8 µM)
[15]; GC6467, S. aureus GC 6467, Mouse Serum pre-incubation
  MIC: 4 mg/L (≈ 5.38 µM)
[15]; GC6467, S. aureus GC 6467, Water pre-incubation
  MIC: 8 mg/L (≈ 10.8 µM)
[16]; GC4560, E. coli GC 4560, Mouse Serum pre-incubation
  MIC: 1 mg/L (≈ 1.34 µM)
[16]; GC4560, E. coli GC 4560, Water pre-incubation
  MIC: 4 mg/L (≈ 5.38 µM)
[17]; GC2203, E. coli GC 2203, Mouse Serum pre-incubation
  MIC: 2 mg/L (≈ 2.69 µM)
[17]; GC2203, E. coli GC 2203, Water pre-incubation
  MIC: 8 mg/L (≈ 10.8 µM)
[18]; GC1079, S. aureus GC 1079, Mouse Serum pre-incubation
  MIC: 4 mg/L (≈ 5.38 µM)
[18]; GC1079, S. aureus GC 1079, Water pre-incubation
  MIC: 4 mg/L (≈ 5.38 µM)
[19]; GC2214, P. aeruginosa GC 2214, Mouse Serum pre-incubation
  MIC: 32 mg/L (≈ 43 µM)
[19]; GC2214, P. aeruginosa GC 2214, Water pre-incubation
  MIC: > 64 mg/L
[20]; GC2267, E. faecalis GC 2267, Mouse Serum pre-incubation
  MIC: 4 mg/L (≈ 5.38 µM)
[20]; GC2267, E. faecalis GC 2267, Water pre-incubation
  MIC: 8 mg/L (≈ 10.8 µM)
